According to publication PMC5848165 (Toxins, 2018):

Columns and labels:
hot plate test in mice = experiment: Hot plate test; assay type: in vivo, mouse (Kunming); conditions: 5 mg/kg i.p., baseline about 10 s, n = 6
Description: (§1) Figure 6 Effects of JZTX-34 on pain. (A) Effects of JZTX-34 on the early phase (0–5 min) and late phase (15–30 min) of formalin-induced paw licking response in mice. (B) Effects of JZTX-34 on the acetic acid-induced writhing response in mice. (C)Effects of JZTX-34 on the hot plate test in mice.
Mice with a latency time about 10 s were selected for the hot plate test. […] After administration of test samples, the latency time was recorded at the time points of 30 min, 60 min, 120 min, and 180 min (Figure 6C). Negative control animals received the same volume of vehicle.
(§2) The synthesized JZTX-34 was obtained according to the procedure as previously described. […] Rats (Sprague-Dawley) and Kunming mice were maintained in the Laboratory of Protein Chemistry of Hunan Normal University. All of the experimental involving animals were approved by the Animal Care and Use Committee of Hunan Normal University (2016-273, 13 October 2016).
Mice were put on a hot plate apparatus (model HZ66-ZH-YLS-6B, Shanghai, China) in order to test response time to a thermal stimulus. The responses time of mice at about 10 s was selected for the test. […] Hind paw licking or jumping were regarded as a sign to avoid heat nociception.
(§3) Data from Axon 700B patch clamp were analyzed by Clampfit10.0 (Molecular Devices, Sunnyvale, CA, USA). Dose-response curves were fitted by the Hill logistic equation: y = 1 − (1 − fmax)/[…]. In this equation, n stands an empirical Hill coefficient and fmax is the fraction of current resistant to inhibition at high toxin (Tx) concentration. The G-V curves were obtained by calculating the conductance (G) at each voltage (V) using the equation G = I/(V1 − Vrev), with Vrev being the reversal potential determined for each cell individually. G-V curves were fitted using a Boltzmann equation—y = 1/(1 + exp[(Va − V)/κ])—in which Va, V, and κ represent midpoint voltage of kinetics, test potential, and slope factor, respectively. […] Statistical significance was calculated using Student’s t-test and was defined as p < 0.05.

[1] = tested on: formalin-induced paw licking response in mice; experiment: Formalin-induced paw licking; assay type: in vivo, mouse (Kunming); conditions: 5 mg/kg i.p., n = 6
Description: Since Nav1.7 plays an important role in pain, the analgesic effects of JZTX-34 were examined in three animal models (formalin-induced paw licking, acetic acid-induced writhing, and hot plate). Intraplantar injection of formalin causes pain and can be divided into two phases. The early phase was neurogenic pain and usually occurred within […]), and the late phase was inflammatory pain lasting from 15 to 30 min).
as §1, §2
Formalin test was performed according to the method described previously. […] After test samples were intraperitoneally (i.p.) injected, 5% formalin (20 μL) was injected to the plantar surface of right hind paw. The time spent licking the injected paw was counted every 5 min. Phase I was defined as 0–10 min, and Phase II defined as […].
as §3

[2] = tested on: C-fiber compound action potential; parameters: method as in PMID 28045073; conditions: desheathed cutaneous nerves; ref [27]; cited from earlier work
Nav1.7 = conditions: cited from earlier work; for potency on Nav1.7 (literature): ref [14],[15]
From the text: Chronic pain is one of the most difficult clinical problems. As Nav1.7 is considered one of the most attractive targets for relieving chronic pain, scientist have paid a lot of effort to look for a selective inhibitor of Nav1.7. Several small molecules with selectivity on Nav1.7 are currently undergoing clinical development, including PF-05089771 (Pfizer, New York, NY, USA) and CNV1014802 (Convergence Pharmaceuticals, London , UK). Compared to small molecules, peptide toxins have better subtype selectivity due to their larger pharmacophore. Spider venoms are a rich source of ion ch ... || Many peptide toxins, which alter gating properties of VGSCs, have been identified to trap the DIIS3-S4 linker of sodium channels. However, the molecular mechanisms of inhibition of sodium currents by peptide toxins are greatly divergent. […] Pro ...

[3] = tested on: other sodium channel subtypes; conditions: literature statement, no reference given; cited from earlier work
[4] = tested on: inflammatory pain and neuropathic pain; conditions: cited from earlier work

Molecule	hot plate latency (hot plate test in mice; 30 min)	hot plate latency (hot plate test in mice; 60 min)	paw licking time, early phase ([1]; control 145.5 s)	paw licking time, late phase ([1]; control 414.5 s)	C-fiber compound action potential [2]	potency on Nav1.7 (literature) (Nav1.7)	effect on channel gating (ProTx-II, literature) (Nav1.7; ref [26])	activity on other sodium channel subtypes [3]	analgesic effect on severe pain ([4]; ref [27])	effect on channel gating (HWTX-IV, literature) (Nav1.7; ref [25])	relief of acute inflammatory and chronic neuropathic pain ([4]; ref [28])
CN1CC[C@]23c4c5ccc(O)c4O[C@H]2[C@@H](O)C=C[C@H]3[C@H]1C5 [morphine, reference compound]	24.8	12.2 s	35.3 s	265 s	–	–	–	–	–	–	–
ProTx-II	–	–	–	–	completely blocked the C-fiber compound action potential	very potent Nav1.7 blockers	modified the voltage dependence of VGSC inactivation	also show activity on other sodium channel subtypes	exerted a strong analgesic effect on severe pain	–	–
HWTX-IV	–	–	–	–	–	very potent Nav1.7 blockers	–	also show activity on other sodium channel subtypes	–	without affecting activation or inactivation of channels	efficiently eased the acute inflammatory pain and chronic neuropathic pain
